Measured values published in PubChem BioAssay (NCI).
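The compound was tested at five concentrations on cells cultured in 96-well plates, with a 48-hour exposure period. GI50 = concentration required for 50% inhibition of growth. The concentration for full growth arrest is given as TGI.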

Test system: NCI/ADR-RES ovarian
Assay: NCI anticancer screen, dose series, 48 h

**Q.** How did the GI50 turn out when `C[C@]12CCc3sc(NCCc4ccccc4)nc3C1=CC[C@@H]1[C@@H]2CC[C@]2(C)C(=O)CC[C@@H]12` was run?
**A.** Its GI50 is 2.31 µM.

**Q.** And the TGI?
**A.** The TGI was 7.52 µM.

**Q.** For `COc1cccc(C2=C(c3c(C)n(C)c4ccccc34)C(=O)NC2=O)c1`, which GI50 is on record?
**A.** Its GI50 is 14 µM.

**Q.** What about the TGI of the same compound?
**A.** The TGI was > 25 µM.

**Q.** Which results are given for `CCN(Cc1ccc(F)cc1)c1ccc(CO)c(F)c1`?
**A.** GI50: 18 µM; TGI: 68.7 µM

**Q.** How did the TGI turn out when `CN(C)CCNC(=O)c1cc([N+](=O)[O-])cc2c1Oc1ccccc1O2` was run?
**A.** Its TGI is > 100 µM.

**Q.** For `O=C1C(N2CC2)=C(N2CC2)C(=O)C(N2CC2)=C1N1CC1`, which TGI is on record?
**A.** The TGI was 1.3 µM.

**Q.** `CCCCC[C@H]1C/C=C2/C(=O)C=C[C@@H]2C/C=C\CCCC(=O)O[C@@H](CCCCC)C/C=C2/C(=O)C=C[C@@H]2C/C=C\CCCC(=O)O1` was tested. Which GI50 did it give?
**A.** Its GI50 is 0.776 µM.

**Q.** What about the TGI of the same compound?
**A.** The TGI was 4.57 µM.

**Q.** What does the source list for `O=C(Nc1cccc(-n2cc(-c3ccncc3)c(-c3cc(O)cc(Cl)c3)n2)c1)Nc1ccc(Cl)c(C(F)(F)F)c1`?
**A.** GI50: 3.4 µM; TGI: 23.6 µM

**Q.** For `CNCCCn1c2c(c3ccc([N+](=O)[O-])cc3c1=O)C(=O)c1cc(OC)cnc1-2`, which GI50 is on record?
**A.** The GI50 was 0.0613 µM.

**Q.** What about the TGI of the same compound?
**A.** The TGI was 1.08 µM.

**Q.** For `CCCc1cc(=O)[nH]c(-n2nc(C)cc2C)n1`, which GI50 is on record?
**A.** The GI50 was 2.73 µM.

**Q.** What about the TGI of the same compound?
**A.** The TGI was > 100 µM.

**Q.** Which TGI does the source give for `COc1cc2oc3cc(=O)cc4oc(-c5ccccc5)cc(c2c2c1CCC(c1ccccc1)O2)c43` (stereo not drawn) here?
**A.** Its TGI is > 100 µM.

**Q.** For `c1cc2n(n1)CCN2`, which TGI is on record?
**A.** The TGI was 6590 µM.

**Q.** `COc1cc(Nc2c(C#N)cnc3cc(OCCCN4CCN(C)CC4)c(OC)cc23)c(Cl)cc1Cl` was tested. Which GI50 did it give?
**A.** The GI50 was 4.6 µM.

**Q.** And the TGI?
**A.** The TGI was 42.9 µM.

**Q.** For `O=CN/C=C/c1cccc(O)c1`, which TGI is on record?
**A.** Its TGI is > 100 µM.

**Q.** How did the TGI turn out when `Nc1ccc2c(SCc3ccc([N+](=O)[O-])cc3)c3ccccc3nc2c1` was run?
**A.** The TGI was 40.6 µM.

**Q.** `COC1=CC(c2ccc[nH]2)=N/C1=C\c1[nH]c(C)c(C(=O)CCCCC(=O)NC(C)(C)C)c1C` was tested. Which GI50 did it give?
**A.** Its GI50 is 1.61 µM.

**Q.** And the TGI?
**A.** The TGI was 3.21 µM.

**Q.** What does the source list for `O=c1ccn(C2CC(O)C(CO)O2)c(=O)[nH]1` (stereo not drawn)?
**A.** GI50: > 5000 µM; TGI: > 5000 µM

**Q.** How did the TGI turn out when `O=C(N/C(=C/c1ccc(Cl)cc1Cl)c1nc2ccccc2s1)c1ccccc1` was run?
**A.** Its TGI is 39.5 µM.

**Q.** For `CCOC(=O)c1cc2c(n1Cc1cccc(OC)c1)-c1oncc1CCC2`, which GI50 is on record?
**A.** Its GI50 is 0.69 µM.

**Q.** And the TGI?
**A.** The TGI was > 21.7 µM.

**Q.** `COc1c(O)cc2oc(-c3ccc(O)cc3)cc(=O)c2c1O` was tested. Which TGI did it give?
**A.** The TGI was > 100 µM.

**Q.** For `O=c1cc(-c2ccccc2F)[nH]c2ccc(N3CCCC3)cc12`, which GI50 is on record?
**A.** Its GI50 is < 0.001 µM.

**Q.** `COc1ccc(/C=C/C(=O)c2ccc(O)c(CN3CCN(c4cc5c(cc4F)c(=O)c(C(=O)O)cn5C4CC4)CC3)c2)cc1` was tested. Which GI50 did it give?
**A.** Its GI50 is 4.44 µM.

**Q.** And the TGI?
**A.** The TGI was > 100 µM.

**Q.** Which GI50 does the source give for `O=C(Nc1ccncc1)C(=O)c1cn(Cc2ccc(Cl)cc2)c2ccccc12` here?
**A.** Its GI50 is 0.0317 µM.

**Q.** What about the TGI of the same compound?
**A.** The TGI was > 100 µM.

Test system: OVCAR-3 ovarian
Assay: NCI anticancer screen, dose series, 48 h

**Q.** How did the GI50 turn out when `C[C@]12CCc3sc(NCCc4ccccc4)nc3C1=CC[C@@H]1[C@@H]2CC[C@]2(C)C(=O)CC[C@@H]12` was run?
**A.** The GI50 was 2.08 µM.

**Q.** What about the TGI of the same compound?
**A.** Its TGI is 4.83 µM.

**Q.** With `COc1cccc(C2=C(c3c(C)n(C)c4ccccc34)C(=O)NC2=O)c1` as the compound, how does the GI50 read?
**A.** The GI50 was > 23.9 µM.

**Q.** And the TGI?
**A.** Its TGI is > 25 µM.

**Q.** With `CCN(Cc1ccc(F)cc1)c1ccc(CO)c(F)c1` as the compound, how does the GI50 read?
**A.** Its GI50 is 5.38 µM.

**Q.** And the TGI?
**A.** The TGI was 18 µM.

**Q.** With `CN(C)CCNC(=O)c1cc([N+](=O)[O-])cc2c1Oc1ccccc1O2` as the compound, how does the TGI read?
**A.** Its TGI is > 100 µM.

**Q.** For `O=C1C(N2CC2)=C(N2CC2)C(=O)C(N2CC2)=C1N1CC1`, which GI50 is on record?
**A.** Its GI50 is 1.04 µM.

**Q.** What about the TGI of the same compound?
**A.** Its TGI is 3.46 µM.

**Q.** `CCCCC[C@H]1C/C=C2/C(=O)C=C[C@@H]2C/C=C\CCCC(=O)O[C@@H](CCCCC)C/C=C2/C(=O)C=C[C@@H]2C/C=C\CCCC(=O)O1` was tested. Which GI50 did it give?
**A.** Its GI50 is 0.0955 µM.

**Q.** What about the TGI of the same compound?
**A.** The TGI was 0.353 µM.

**Q.** `O=C(Nc1cccc(-n2cc(-c3ccncc3)c(-c3cc(O)cc(Cl)c3)n2)c1)Nc1ccc(Cl)c(C(F)(F)F)c1` was tested. Which GI50 did it give?
**A.** The GI50 was 2.34 µM.

**Q.** What about the TGI of the same compound?
**A.** The TGI was 6.65 µM.

**Q.** What does the source list for `CNCCCn1c2c(c3ccc([N+](=O)[O-])cc3c1=O)C(=O)c1cc(OC)cnc1-2`?
**A.** GI50: 0.174 µM; TGI: 0.617 µM

**Q.** `CCCc1cc(=O)[nH]c(-n2nc(C)cc2C)n1` was tested. Which GI50 did it give?
**A.** Its GI50 is 7.43 µM.

**Q.** What about the TGI of the same compound?
**A.** The TGI was > 100 µM.

**Q.** With `COc1cc2oc3cc(=O)cc4oc(-c5ccccc5)cc(c2c2c1CCC(c1ccccc1)O2)c43` (stereo not drawn) as the compound, how does the TGI read?
**A.** The TGI was 77.6 µM.

**Q.** With `c1cc2n(n1)CCN2` as the compound, how does the TGI read?
**A.** Its TGI is > 10000 µM.

**Q.** What does the source list for `COc1cc(Nc2c(C#N)cnc3cc(OCCCN4CCN(C)CC4)c(OC)cc23)c(Cl)cc1Cl`?
**A.** GI50: 2.78 µM; TGI: 14.4 µM

**Q.** `O=CN/C=C/c1cccc(O)c1` was tested. Which TGI did it give?
**A.** The TGI was > 100 µM.

**Q.** For `Nc1ccc2c(SCc3ccc([N+](=O)[O-])cc3)c3ccccc3nc2c1`, which TGI is on record?
**A.** Its TGI is 30.2 µM.

**Q.** `COC1=CC(c2ccc[nH]2)=N/C1=C\c1[nH]c(C)c(C(=O)CCCCC(=O)NC(C)(C)C)c1C` was tested. Which GI50 did it give?
**A.** The GI50 was 1.22 µM.

**Q.** What about the TGI of the same compound?
**A.** The TGI was 2.73 µM.

**Q.** What does the source list for `O=c1ccn(C2CC(O)C(CO)O2)c(=O)[nH]1` (stereo not drawn)?
**A.** GI50: > 5000 µM; TGI: > 5000 µM

**Q.** With `O=C(N/C(=C/c1ccc(Cl)cc1Cl)c1nc2ccccc2s1)c1ccccc1` as the compound, how does the TGI read?
**A.** Its TGI is 24.5 µM.

**Q.** What does the source list for `CCOC(=O)c1cc2c(n1Cc1cccc(OC)c1)-c1oncc1CCC2`?
**A.** GI50: 0.372 µM; TGI: 4.53 µM

**Q.** For `COc1c(O)cc2oc(-c3ccc(O)cc3)cc(=O)c2c1O`, which TGI is on record?
**A.** The TGI was > 100 µM.

**Q.** For `COc1ccc(/C=C/C(=O)c2ccc(O)c(CN3CCN(c4cc5c(cc4F)c(=O)c(C(=O)O)cn5C4CC4)CC3)c2)cc1`, which GI50 is on record?
**A.** Its GI50 is 1.97 µM.

**Q.** And the TGI?
**A.** Its TGI is > 100 µM.

**Q.** Which GI50 does the source give for `O=C(Nc1ccncc1)C(=O)c1cn(Cc2ccc(Cl)cc2)c2ccccc12` here?
**A.** The GI50 was 0.0267 µM.

**Q.** And the TGI?
**A.** Its TGI is 0.0652 µM.

Test system: RPMI-8226 leukemia
Assay: NCI anticancer screen, dose series, 48 h

**Q.** `C[C@]12CCc3sc(NCCc4ccccc4)nc3C1=CC[C@@H]1[C@@H]2CC[C@]2(C)C(=O)CC[C@@H]12` was tested. Which GI50 did it give?
**A.** Its GI50 is 1.79 µM.

**Q.** What about the TGI of the same compound?
**A.** The TGI was 5.69 µM.

**Q.** How did the GI50 turn out when `COc1cccc(C2=C(c3c(C)n(C)c4ccccc34)C(=O)NC2=O)c1` was run?
**A.** Its GI50 is > 25 µM.

**Q.** And the TGI?
**A.** The TGI was > 25 µM.

**Q.** For `CCN(Cc1ccc(F)cc1)c1ccc(CO)c(F)c1`, which GI50 is on record?
**A.** Its GI50 is 7.13 µM.

**Q.** What about the TGI of the same compound?
**A.** Its TGI is 33.7 µM.

**Q.** With `CN(C)CCNC(=O)c1cc([N+](=O)[O-])cc2c1Oc1ccccc1O2` as the compound, how does the TGI read?
**A.** The TGI was > 100 µM.

**Q.** How did the GI50 turn out when `O=C1C(N2CC2)=C(N2CC2)C(=O)C(N2CC2)=C1N1CC1` was run?
**A.** The GI50 was 2.74 µM.

**Q.** And the TGI?
**A.** Its TGI is 17.2 µM.

**Q.** `CCCCC[C@H]1C/C=C2/C(=O)C=C[C@@H]2C/C=C\CCCC(=O)O[C@@H](CCCCC)C/C=C2/C(=O)C=C[C@@H]2C/C=C\CCCC(=O)O1` was tested. Which GI50 did it give?
**A.** The GI50 was 0.098 µM.

**Q.** And the TGI?
**A.** The TGI was 0.599 µM.

**Q.** `O=C(Nc1cccc(-n2cc(-c3ccncc3)c(-c3cc(O)cc(Cl)c3)n2)c1)Nc1ccc(Cl)c(C(F)(F)F)c1` was tested. Which GI50 did it give?
**A.** Its GI50 is 1.95 µM.

**Q.** What about the TGI of the same compound?
**A.** The TGI was 5.09 µM.

**Q.** With `CNCCCn1c2c(c3ccc([N+](=O)[O-])cc3c1=O)C(=O)c1cc(OC)cnc1-2` as the compound, how does the GI50 read?
**A.** The GI50 was 0.0764 µM.

**Q.** And the TGI?
**A.** Its TGI is 0.527 µM.

**Q.** Which results are given for `CCCc1cc(=O)[nH]c(-n2nc(C)cc2C)n1`?
**A.** GI50: 5.16 µM; TGI: 28.4 µM

**Q.** `COc1cc2oc3cc(=O)cc4oc(-c5ccccc5)cc(c2c2c1CCC(c1ccccc1)O2)c43` (stereo not drawn) was tested. Which TGI did it give?
**A.** The TGI was 20.9 µM.
